{"source": "PubChem BioAssay AID588468", "about": "(NMMLSC, 2011)", "note": "The source made the active and inactive calls.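 Rule for the calls: active = compounds whose thermal stabilization response of the kinase is above zero; inactive = the rest.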"}
{"target": "Beta-adrenergic receptor kinase 1 (Homo sapiens) (UniProt P25098)", "sequence (P25098 whole entry, looked up)": "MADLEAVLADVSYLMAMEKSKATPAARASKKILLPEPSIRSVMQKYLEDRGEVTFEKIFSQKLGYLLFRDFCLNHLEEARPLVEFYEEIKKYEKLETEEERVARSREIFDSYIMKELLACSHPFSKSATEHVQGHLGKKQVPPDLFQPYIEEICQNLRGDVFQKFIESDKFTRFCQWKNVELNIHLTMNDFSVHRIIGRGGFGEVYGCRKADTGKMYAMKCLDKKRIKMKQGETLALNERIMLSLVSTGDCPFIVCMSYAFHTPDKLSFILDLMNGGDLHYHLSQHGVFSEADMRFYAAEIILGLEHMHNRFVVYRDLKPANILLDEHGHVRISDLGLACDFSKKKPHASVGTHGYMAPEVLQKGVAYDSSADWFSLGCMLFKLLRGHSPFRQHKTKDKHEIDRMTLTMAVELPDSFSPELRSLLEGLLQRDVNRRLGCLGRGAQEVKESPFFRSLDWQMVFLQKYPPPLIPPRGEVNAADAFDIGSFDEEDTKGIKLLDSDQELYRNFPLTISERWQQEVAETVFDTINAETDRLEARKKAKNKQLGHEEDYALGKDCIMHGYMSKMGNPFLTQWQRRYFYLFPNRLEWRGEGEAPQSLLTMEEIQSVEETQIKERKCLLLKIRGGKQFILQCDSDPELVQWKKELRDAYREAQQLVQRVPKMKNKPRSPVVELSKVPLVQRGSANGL", "test": "direct GRK2 binders by thermal shift, late-stage follow-up, orthogonal assay for GRK2 aptamer-displacement inhibitor project, biophysical, Thermofluor, set 2 (AID 588468)", "settings": "purified GRK2 thermal shift, ANS fluorescence; at 200 µM; hits give high values"}
{"smiles": "CCOc1ccc(NC(=O)CCS(=O)(=O)c2ccc(Br)cc2)cc1", "thermal stabilization response": "-25.9% (inactive)"}
{"smiles": "COc1ccc(CCNC(=O)CCS(=O)(=O)c2ccc(Br)cc2)cc1OC", "thermal stabilization response": "-74.6% (inactive)"}
{"smiles": "CCOc1ccccc1NC(=O)CCS(=O)(=O)c1ccc(Br)cc1", "thermal stabilization response": "-16.1% (inactive)"}
{"smiles": "O=C(O)Cc1ccc(-n2cccc2)cc1", "thermal stabilization response": "-127% (inactive)"}
{"smiles": "COc1ccc([N+](=O)[O-])cc1NC(=O)CCS(=O)(=O)c1ccc(Br)cc1", "thermal stabilization response": "-85.1% (inactive)"}
{"smiles": "O=C(CSc1nc2ccccc2c(=O)n1-c1ccccc1)NC(=O)CN1CCCC1=O", "thermal stabilization response": "-62% (inactive)"}
{"smiles": "CC(CS(=O)(=O)c1ccc2c(c1)NC(=O)CS2)C(=O)NCc1ccccc1Cl", "note": "(stereo not drawn)", "thermal stabilization response": "-20.4% (inactive)"}
{"smiles": "O=C(CCS(=O)(=O)c1ccc(Br)cc1)Nc1ccc(Br)cc1F", "thermal stabilization response": "-34.7% (inactive)"}
{"smiles": "Cc1ccccc1NC(=O)CCS(=O)(=O)c1ccc(Br)s1", "thermal stabilization response": "116%"}
{"smiles": "C#CCSc1nc2sc3c(c2c(=O)n1C)CCC3", "thermal stabilization response": "21.3%"}
{"smiles": "Cc1ccc(CCNC(=O)CCS(=O)(=O)c2ccc(Br)cc2)cc1", "thermal stabilization response": "1.04%"}
{"smiles": "CCN(CC)c1ccc(NC(=O)CCS(=O)(=O)c2ccc(Br)cc2)c(C)c1", "thermal stabilization response": "72%"}
{"smiles": "COc1ccc(Cl)cc1NC(=O)CCS(=O)(=O)c1ccc(Br)cc1", "thermal stabilization response": "-601% (inactive)"}
{"smiles": "CC(=O)N1CCN(Cc2nc3cc(Cl)ccc3c(=O)[nH]2)CC1", "thermal stabilization response": "-41.4% (inactive)"}
{"smiles": "O=C(CCS(=O)(=O)c1ccc(Br)cc1)NCc1cccs1", "thermal stabilization response": "-152% (inactive)"}
{"smiles": "O=C(CCS(=O)(=O)c1ccc(Br)s1)Nc1ccccc1Br", "thermal stabilization response": "-73.1% (inactive)"}
{"smiles": "COc1ccc(NC(=O)CCS(=O)(=O)c2ccc(Br)s2)cc1", "thermal stabilization response": "-93.6% (inactive)"}
{"smiles": "COC(=O)c1ccccc1NC(=O)CCS(=O)(=O)c1ccc(Br)s1", "thermal stabilization response": "-184% (inactive)"}
{"smiles": "NS(=O)(=O)c1ccc(CCNC(=O)CCS(=O)(=O)c2ccc(Br)cc2)cc1", "thermal stabilization response": "-107% (inactive)"}
{"smiles": "Cc1cc2ccccc2n1CCNC(=O)C(C)Oc1ccccc1", "note": "(stereo not drawn)", "thermal stabilization response": "-116% (inactive)"}
{"smiles": "Cc1cccc(CCNC(=O)CCS(=O)(=O)c2ccc(Br)cc2)c1", "thermal stabilization response": "44.5%"}
{"smiles": "O=C(CN1CCc2ccccc21)NC(=O)NCc1ccccc1", "thermal stabilization response": "25.7%"}
{"smiles": "COC(=O)c1ccc(NC(=O)CCS(=O)(=O)c2ccc(Br)cc2)cc1", "thermal stabilization response": "-62.8% (inactive)"}
